In ChEMBL document CHEMBL1201862, “PubChem BioAssay data set” (2004) one finds IC50, EC50 and AC50 data, which are given here for ten compounds.

Experiment [1] relates to HEK293. Nature of the experiment: cells. The class given is functional, cell-based. As to conditions: Homo sapiens.
The subject of experiment [2] is HEK293. As to the kind of experiment: NOD1 signaling inhibitors, primary screen, cell-based, luminescence, uHTS (AID 1578). The class given is functional. The conditions noted are these: Homo sapiens.
The subject of experiment [3] is HEK293. As to the kind of experiment: NOD2 signaling inhibitors in MDP-stimulated cells, cell-based, uHTS, luminescence (AID 2001). The class given is functional. As to conditions: Homo sapiens.
The subject of experiment [4] is HEK293. Nature of the experiment: cells. The class given is functional, cell-based. The conditions noted are these: Homo sapiens. This is another data set of the same source.
Experiment [5] deals with T1, Replicative DNA helicase DnaB (Mycobacterium tuberculosis, UniProt P9WMR3).
T1 sequence (P9WMR3 whole entry): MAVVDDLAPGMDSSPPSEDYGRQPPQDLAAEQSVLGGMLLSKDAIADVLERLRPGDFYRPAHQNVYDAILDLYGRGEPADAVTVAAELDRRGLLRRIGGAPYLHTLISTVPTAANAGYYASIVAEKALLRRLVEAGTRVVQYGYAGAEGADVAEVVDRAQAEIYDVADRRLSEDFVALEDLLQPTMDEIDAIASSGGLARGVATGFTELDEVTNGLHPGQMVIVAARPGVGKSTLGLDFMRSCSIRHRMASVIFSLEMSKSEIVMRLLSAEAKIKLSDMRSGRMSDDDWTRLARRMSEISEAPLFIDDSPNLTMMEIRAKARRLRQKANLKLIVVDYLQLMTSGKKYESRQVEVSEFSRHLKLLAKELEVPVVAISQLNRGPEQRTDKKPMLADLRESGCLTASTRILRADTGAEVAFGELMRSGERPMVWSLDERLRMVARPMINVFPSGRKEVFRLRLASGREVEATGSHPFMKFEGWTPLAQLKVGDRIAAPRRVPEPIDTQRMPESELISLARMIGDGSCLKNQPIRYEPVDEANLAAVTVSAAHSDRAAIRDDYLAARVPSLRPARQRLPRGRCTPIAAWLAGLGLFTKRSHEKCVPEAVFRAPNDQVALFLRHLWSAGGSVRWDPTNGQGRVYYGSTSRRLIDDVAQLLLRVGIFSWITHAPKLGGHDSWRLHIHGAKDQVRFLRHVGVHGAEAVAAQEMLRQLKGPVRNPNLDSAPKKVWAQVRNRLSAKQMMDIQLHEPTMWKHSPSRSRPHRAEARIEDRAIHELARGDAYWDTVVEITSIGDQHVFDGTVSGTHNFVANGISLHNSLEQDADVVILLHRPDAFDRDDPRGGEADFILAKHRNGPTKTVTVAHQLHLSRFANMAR
As to the kind of experiment: DnaB intein splicing inhibitors, dose response, biochemical, cell-free fluorescence (AID 449749). Type of experiment: functional.

For experiment [6], the target named is T2, Protein RecA (Mycobacterium tuberculosis, UniProt P9WHJ3).
T2 sequence (P9WHJ3 whole entry): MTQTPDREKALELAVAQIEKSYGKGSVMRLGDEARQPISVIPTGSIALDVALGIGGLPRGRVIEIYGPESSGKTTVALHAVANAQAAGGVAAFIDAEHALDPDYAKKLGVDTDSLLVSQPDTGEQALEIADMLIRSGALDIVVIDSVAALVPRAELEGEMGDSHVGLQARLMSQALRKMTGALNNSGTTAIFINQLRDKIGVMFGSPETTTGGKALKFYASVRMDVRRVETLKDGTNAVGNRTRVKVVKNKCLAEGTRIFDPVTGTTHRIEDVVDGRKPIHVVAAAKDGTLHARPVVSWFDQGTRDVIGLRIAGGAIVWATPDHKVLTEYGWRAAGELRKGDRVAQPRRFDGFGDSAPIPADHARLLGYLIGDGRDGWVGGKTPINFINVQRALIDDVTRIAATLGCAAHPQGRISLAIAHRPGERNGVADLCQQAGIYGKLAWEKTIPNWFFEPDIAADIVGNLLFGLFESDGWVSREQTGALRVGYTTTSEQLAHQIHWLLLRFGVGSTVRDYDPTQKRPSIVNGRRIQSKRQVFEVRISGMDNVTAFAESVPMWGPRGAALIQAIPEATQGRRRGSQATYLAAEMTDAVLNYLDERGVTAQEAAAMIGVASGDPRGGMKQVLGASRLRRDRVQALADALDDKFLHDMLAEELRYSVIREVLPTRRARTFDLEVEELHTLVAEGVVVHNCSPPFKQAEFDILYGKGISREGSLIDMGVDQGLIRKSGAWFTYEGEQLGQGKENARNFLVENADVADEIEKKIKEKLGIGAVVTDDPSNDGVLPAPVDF
As to the kind of experiment: Fluorescence Cell-Free Homogeneous Dose Retest to Identify Inhibitors of RecA-Intein Splicing Activity. [Related pubchem assays (depositor defined):AID2097, AID2223, AID489010, AID492950]. Type of experiment: functional.

Experiment [7] deals with Glucose-6-phosphate 1-dehydrogenase (Homo sapiens, UniProt P11413). As to the kind of experiment: human G6PD enzyme inhibitors, dose response, selectivity assay for P. falciparum G6PD inhibitor project, biochemical, fluorescence (AID 504792). The class given is functional.
Experiment [8] concerns the target FAD-linked sulfhydryl oxidase ALR (Homo sapiens, UniProt P55789). Nature of the experiment: inhibitors of human ALR sulfhydryl oxidase, dose response, biochemical, H2O2 detection, luminescence, cherry-pick (AID 493248).
Experiment [9] deals with DNA dC->dU-editing enzyme APOBEC-3A (Homo sapiens, UniProt P31941). Nature of the experiment: APOBEC3A DNA deaminase inhibitors, dose response, biochemical (AID 504722). The class given is functional.
Experiment [10] has as its target DNA dC->dU-editing enzyme APOBEC-3G (Homo sapiens, UniProt Q9HC16). Nature of the experiment: Dose Response confirmation of small molecule APOBEC3G DNA Deaminase Inhibitors via a fluorescence-based single-stranded DNA deaminase assay. [Related pubchem assays (depositor defined):AID493012, AID493028]. The class given is functional.
Experiment [11] deals with T3, Leucine aminopeptidase (Plasmodium falciparum 3D7, UniProt Q8IL11).
T3 sequence (Q8IL11 whole entry): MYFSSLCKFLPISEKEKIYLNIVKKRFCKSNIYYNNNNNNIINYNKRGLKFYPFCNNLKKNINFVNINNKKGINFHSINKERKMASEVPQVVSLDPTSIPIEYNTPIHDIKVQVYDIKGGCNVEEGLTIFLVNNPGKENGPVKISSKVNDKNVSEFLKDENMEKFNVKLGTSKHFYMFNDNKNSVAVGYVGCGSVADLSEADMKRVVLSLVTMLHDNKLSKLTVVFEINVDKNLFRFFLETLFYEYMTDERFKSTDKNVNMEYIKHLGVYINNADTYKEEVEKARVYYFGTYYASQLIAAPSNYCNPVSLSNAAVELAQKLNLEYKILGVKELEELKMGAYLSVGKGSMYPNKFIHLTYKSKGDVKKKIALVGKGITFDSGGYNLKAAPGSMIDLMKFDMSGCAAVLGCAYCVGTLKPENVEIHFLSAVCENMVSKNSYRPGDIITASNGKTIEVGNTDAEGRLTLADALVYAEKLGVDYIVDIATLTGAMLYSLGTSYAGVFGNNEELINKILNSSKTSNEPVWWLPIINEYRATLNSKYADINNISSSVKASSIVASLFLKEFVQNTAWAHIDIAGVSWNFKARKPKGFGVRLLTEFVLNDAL
As to the kind of experiment: P. falciparum M17LAP inhibitors, primary screen, biochemical, fluorogenic H-Leu-NHMec substrate, 1536-well (AID 1619). Type of experiment: functional.

In experiment [12] the target is G-protein coupled receptor 55 (Homo sapiens, UniProt Q9Y2T6). Nature of the experiment: GPR55 antagonists blocking LPI-driven arrestin recruitment, primary screen, imaging, U2OS, beta-arrestin-GFP, LPI agonist (AID 2013).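 Note: antagonist potency measured as reduced agonist-driven arrestin aggregation.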 Type of experiment: functional. In general terms: Arrestin recruitment assays detect the binding of arrestin to an activated receptor.
Experiment [13] addresses T4, Rac GTPase-activating protein 1 (Homo sapiens, UniProt Q9H0H5).
T4 sequence (Q9H0H5 whole entry): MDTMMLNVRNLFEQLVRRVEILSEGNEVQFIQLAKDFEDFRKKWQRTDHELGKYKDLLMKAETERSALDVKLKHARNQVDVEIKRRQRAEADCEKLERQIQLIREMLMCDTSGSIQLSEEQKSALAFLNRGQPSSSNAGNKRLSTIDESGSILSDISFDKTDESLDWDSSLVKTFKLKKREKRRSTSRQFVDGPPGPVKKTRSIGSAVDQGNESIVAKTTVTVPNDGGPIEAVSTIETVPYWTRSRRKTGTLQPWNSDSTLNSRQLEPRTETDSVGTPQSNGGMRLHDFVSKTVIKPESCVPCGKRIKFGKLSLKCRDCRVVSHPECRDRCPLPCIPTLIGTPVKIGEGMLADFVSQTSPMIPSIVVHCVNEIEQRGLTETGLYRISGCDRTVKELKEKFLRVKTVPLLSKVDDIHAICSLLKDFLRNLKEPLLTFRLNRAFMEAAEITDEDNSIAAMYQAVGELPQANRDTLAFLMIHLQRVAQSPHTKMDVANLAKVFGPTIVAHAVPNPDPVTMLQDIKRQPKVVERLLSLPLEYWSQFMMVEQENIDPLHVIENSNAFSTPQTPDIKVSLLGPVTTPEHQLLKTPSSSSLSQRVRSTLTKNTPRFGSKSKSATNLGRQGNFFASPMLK
As to the kind of experiment: MgcRacGAP GTPase-activating activity inhibitors, confirmation, biochemical, ADP Hunter fluorescence, primary and confirmatory (AID 624330). The class given is functional.

For experiment [14], the target named is T5, Short transient receptor potential channel 4 (Mus musculus, UniProt Q9QUQ5).
T5 sequence (Q9QUQ5 whole entry): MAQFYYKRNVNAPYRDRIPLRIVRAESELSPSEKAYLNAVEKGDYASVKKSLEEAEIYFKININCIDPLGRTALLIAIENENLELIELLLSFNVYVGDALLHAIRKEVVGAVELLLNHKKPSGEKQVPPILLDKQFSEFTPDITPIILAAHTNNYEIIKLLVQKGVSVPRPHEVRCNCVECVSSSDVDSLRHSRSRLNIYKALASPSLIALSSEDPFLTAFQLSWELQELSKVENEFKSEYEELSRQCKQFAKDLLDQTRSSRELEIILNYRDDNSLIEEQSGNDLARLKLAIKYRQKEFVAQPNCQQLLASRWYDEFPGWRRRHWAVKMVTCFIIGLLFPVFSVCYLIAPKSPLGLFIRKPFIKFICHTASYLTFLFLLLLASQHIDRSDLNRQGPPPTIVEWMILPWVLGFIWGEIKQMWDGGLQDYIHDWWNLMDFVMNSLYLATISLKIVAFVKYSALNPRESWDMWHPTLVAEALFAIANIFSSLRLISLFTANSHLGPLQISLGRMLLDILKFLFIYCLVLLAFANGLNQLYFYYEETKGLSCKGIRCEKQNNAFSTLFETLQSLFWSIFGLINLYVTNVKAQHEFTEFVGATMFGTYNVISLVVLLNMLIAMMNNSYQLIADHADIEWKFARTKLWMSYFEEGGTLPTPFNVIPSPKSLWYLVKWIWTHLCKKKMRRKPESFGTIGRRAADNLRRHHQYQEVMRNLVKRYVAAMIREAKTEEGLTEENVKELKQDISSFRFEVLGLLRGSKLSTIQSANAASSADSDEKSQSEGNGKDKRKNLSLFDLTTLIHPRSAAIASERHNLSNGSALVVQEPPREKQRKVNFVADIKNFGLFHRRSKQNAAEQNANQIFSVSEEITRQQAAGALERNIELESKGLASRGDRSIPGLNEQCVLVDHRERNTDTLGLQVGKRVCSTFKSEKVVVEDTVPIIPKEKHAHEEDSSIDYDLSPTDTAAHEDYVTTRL
Nature of the experiment: mouse TRPC4 channel activators, dose response, cell-based, HEK293 TRPC4/mu-opioid, Fluo-4 calcium (AID 434937). The class given is functional.

Active and inactive are the calls of the source. Where only a bound is given, the exact number is not on record here.

DNA dC->dU-editing enzyme APOBEC-3G, sequence (Q9HC16 whole entry): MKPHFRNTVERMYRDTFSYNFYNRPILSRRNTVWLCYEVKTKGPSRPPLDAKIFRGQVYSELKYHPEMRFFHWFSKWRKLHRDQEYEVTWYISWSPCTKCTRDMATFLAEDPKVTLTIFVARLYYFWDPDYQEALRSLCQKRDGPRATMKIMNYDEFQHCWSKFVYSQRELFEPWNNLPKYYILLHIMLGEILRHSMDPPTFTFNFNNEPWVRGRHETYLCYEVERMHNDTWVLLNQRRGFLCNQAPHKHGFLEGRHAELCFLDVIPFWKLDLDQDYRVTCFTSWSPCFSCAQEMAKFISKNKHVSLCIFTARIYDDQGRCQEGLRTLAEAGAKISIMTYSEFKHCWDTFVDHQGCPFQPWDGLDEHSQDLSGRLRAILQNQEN
DNA dC->dU-editing enzyme APOBEC-3A, sequence (P31941 whole entry): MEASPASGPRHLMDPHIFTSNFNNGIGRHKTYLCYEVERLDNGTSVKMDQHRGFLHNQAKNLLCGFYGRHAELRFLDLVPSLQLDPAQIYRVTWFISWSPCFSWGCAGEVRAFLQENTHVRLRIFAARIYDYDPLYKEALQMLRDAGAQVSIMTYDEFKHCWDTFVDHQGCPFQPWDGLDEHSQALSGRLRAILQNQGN
G-protein coupled receptor 55, sequence (Q9Y2T6 whole entry): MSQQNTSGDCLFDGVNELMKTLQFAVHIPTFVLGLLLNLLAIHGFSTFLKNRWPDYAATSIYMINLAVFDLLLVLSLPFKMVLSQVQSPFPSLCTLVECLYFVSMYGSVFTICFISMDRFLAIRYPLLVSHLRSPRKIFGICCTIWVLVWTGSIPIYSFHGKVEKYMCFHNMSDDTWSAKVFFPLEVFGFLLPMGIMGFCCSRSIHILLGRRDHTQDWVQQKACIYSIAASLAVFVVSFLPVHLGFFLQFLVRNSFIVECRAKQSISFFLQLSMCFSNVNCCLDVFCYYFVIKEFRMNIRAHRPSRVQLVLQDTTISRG
Glucose-6-phosphate 1-dehydrogenase, sequence (P11413 whole entry): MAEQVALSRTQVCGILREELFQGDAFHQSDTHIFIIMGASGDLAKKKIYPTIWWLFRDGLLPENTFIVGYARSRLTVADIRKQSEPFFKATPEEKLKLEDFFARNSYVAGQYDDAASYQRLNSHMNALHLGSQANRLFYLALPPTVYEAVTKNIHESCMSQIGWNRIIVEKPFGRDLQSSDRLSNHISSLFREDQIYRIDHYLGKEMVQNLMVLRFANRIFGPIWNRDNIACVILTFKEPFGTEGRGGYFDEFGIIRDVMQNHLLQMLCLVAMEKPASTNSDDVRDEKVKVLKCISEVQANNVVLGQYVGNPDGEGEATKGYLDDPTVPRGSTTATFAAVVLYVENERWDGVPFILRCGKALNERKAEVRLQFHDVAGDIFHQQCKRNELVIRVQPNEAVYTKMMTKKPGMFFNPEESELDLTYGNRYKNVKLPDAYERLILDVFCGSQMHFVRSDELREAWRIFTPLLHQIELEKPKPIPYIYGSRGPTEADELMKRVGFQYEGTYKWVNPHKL
FAD-linked sulfhydryl oxidase ALR, sequence (P55789 whole entry): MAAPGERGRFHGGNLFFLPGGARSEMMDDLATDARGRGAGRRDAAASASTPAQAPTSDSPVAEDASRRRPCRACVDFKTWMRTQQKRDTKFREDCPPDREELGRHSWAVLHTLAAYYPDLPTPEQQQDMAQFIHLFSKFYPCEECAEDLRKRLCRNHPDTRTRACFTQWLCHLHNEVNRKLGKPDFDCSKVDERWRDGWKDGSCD

The IC50 is the concentration that gives 50% inhibition. As usually defined, the EC50 is the concentration that produces a half-maximal response. `Oc1nc(CCl)nc2cc(-c3ccc(F)cc3)sc12`: the IC50 in [1] is 12.6 µM (active); in [3], 15.2 µM (inactive); in [4], > 20 µM (inactive). In addition, in experiment [2], the EC50 is 13.1 µM (active).
In general, AC50 refers to the midpoint of the concentration-response curve, whichever way the signal moves. Take `O=S(=O)(Nc1c(O)ccc2ccccc12)c1ccccc1`: in [5], the AC50 is 5.09 µM (active). In addition, the EC50 in experiment [6] is 1.51 µM (active). The IC50 in experiment [7] is 29.9 µM (inactive).
Take `Sc1nnc(C2CCCCC2)n1/N=C/c1ccccn1`: the AC50 in experiment [8] is 1.04 µM (active). Besides, the results for the IC50 in experiment [9] and in experiment [10] were > 100 µM (inactive) and 2.23 µM (active), respectively.
With `CCc1nnc(NS(=O)(=O)c2ccc(NC(=O)/C=C/c3ccc(OC)cc3OC)cc2)s1`, the IC50 in experiment [11] was 7.96 µM (active); in experiment [12], 1.44 µM (active).
With `COC(=O)c1ccccc1NC(=S)NC(NC(=O)c1ccco1)C(Cl)(Cl)Cl` (stereo not drawn), the IC50 in experiment [12] was 8.08 µM (active).
In the case of `Nn1c(C2COc3ccccc3O2)n[nH]c1=S` (stereo not drawn), the IC50 in experiment [9] is > 100 µM (inactive); in [10], 5.09 µM (active).
As for `Cn1c(=O)c2ccccc2n2c(S)nnc12`, the IC50 is 19.9 µM (active) in experiment [13], > 100 µM (inactive) in [9] and 3.8 µM (active) in experiment [10].
The corresponding values for `COc1ccc(/C=N/n2c(S)nnc2-c2[nH]nc3c2CCC3)c(OC)c1OC` are 69.9 µM (active), > 100 µM (inactive) and 4.64 µM (active).
Take `NCCCNC(=O)c1cc2ccccc2[nH]1`: the EC50 in experiment [14] is 7.5 µM (active).
Same read-out and setting: next, `CC(C)(C)c1cc(Cl)ccc1OCCn1ccnc1`: 5.96 µM (active).
